Reference: patent publication US10800791B2, “Triazole ACC inhibitors and uses thereof” (Gilead Apollo, LLC, priority 2015, dated 2020)
≈ marks a conversion by molar mass, not a printed value. Where two headings read alike, the source gives them in different places.

Tests used:
human (hACC2) = human (hACC2) (Homo sapiens, UniProt O00763); experiment: In vitro ACC inhibition assay (ADP-Glo), hACC2; assay type: biochemical; details: 5 nM ACC2, 20 μM ATP, 20 μM acetyl-CoA
Procedure: The detailed procedure is as follows. […] 10 μL ADP glo reagent was added. […] 20 μL kinase detection reagent was added.

C. albicans = experiment: Antifungal Activity Assay (broth microtiter MIC), C. albicans; assay type: cell-based, Candida albicans; details: Candida albicans, ATCC90028, 48 h
Outline: (§1)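 Susceptibility was determined by CLSI M27-A3 broth microdilution in RPMI 1640 buffered with MOPS. Growth inhibition was scored visually after 48 h.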

C. krusei = experiment: Antifungal Activity Assay (broth microtiter MIC), C. krusei; assay type: cell-based, Candida krusei; details: Pichia kudriavzevii, ATCC6258, 48 h
Outline: as §1

C. parapsilosis = experiment: Antifungal Activity Assay (broth microtiter MIC), C. parapsilosis; assay type: cell-based, Candida parapsilosis; details: Lodderomyces parapsilosis, ATCC22019, 48 h
Outline: as §1

Botrtyis cinerea (Bc) = experiment: Growth inhibition assay of fungal pathogens, Bc; assay type: cell-based; details: 48 h, growth inhibition at 48 hours vs 2% DMSO control
Outline: (§2)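 Inhibition percentages reflect 48 h OD600 and visual scores relative to a 2% DMSO control. Test concentrations were 50, 10, 2 ppm or 2, 0.4, 0.08 ppm final, applied to spores in 17% V8 medium.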

[1] = test system: Collectotrichum graminicola (Cg); experiment: Growth inhibition assay of fungal pathogens, Cg; assay type: cell-based; details: 48 h, growth inhibition at 48 hours vs 2% DMSO control
Outline: as §2

Diplodia maydis (Dm) = experiment: Growth inhibition assay of fungal pathogens, Dm; assay type: cell-based; details: Stenocarpella maydis, 48 h, growth inhibition at 48 hours vs 2% DMSO control
Outline: as §2

[2] = test system: Fusarium moniliforme (Fm); experiment: Growth inhibition assay of fungal pathogens, Fm; assay type: cell-based; details: Fusarium verticillioides, 48 h, read-out: Concentration at 90% Inhibition Fm
Outline: as §2

[3] = test system: Fusarium virguliforme (Fv); experiment: Growth inhibition assay of fungal pathogens, Fv; assay type: cell-based; details: 48 h
Outline: as §2

[4] = test system: Phytophthora capsici (Pc); experiment: Growth inhibition assay of fungal pathogens, Pc; assay type: cell-based; details: 48 h
Outline: as §2

Rhizoctonia solani (Rs) = experiment: Growth inhibition assay of fungal pathogens, Rs; assay type: cell-based; details: 48 h
Septoria tritici (St) = experiment: Growth inhibition assay of fungal pathogens, St; assay type: cell-based; details: Zymoseptoria tritici, 48 h, growth inhibition at 48 hours vs 2% DMSO control
Outline: as §2

fungal (fACC2) = fungal (fACC2) (UniProt Q00955); details: read-out: fACC2 (in vitro ACC2 Inhibition Assay, IC50), ADP-Glo, 5 nM ACC2, 20 μM ATP, 20 μM acetyl-CoA
[5] = Table 3b (additional results), ATCC 90028, 3 replicates, MIC recorded at 48 h, read-out: MIC, C. albicans ATCC 90028
[6] = Table 3b (additional results), ATCC 6258, 3 replicates, MIC recorded at 48 h, read-out: MIC, C. krusei ATCC 6258
[7] = Table 3b (additional results), ATCC 22019, 3 replicates, MIC recorded at 48 h, read-out: MIC, C. parapsilosis ATCC 22019
[8] = Botrtyis cinerea, read-out: Concentration at 90% Inhibition Bc
[9] = Collectotrichum graminicola, read-out: Concentration at 90% Inhibition Cg
[10] = Diplodia maydis, read-out: Concentration at 90% Inhibition Dm
[11] = Fusarium moniliforme, growth inhibition at 48 hours vs 2% DMSO control
[12] = growth inhibition at 48 hours vs 2% DMSO control, read-out: Concentration at 90% Inhibition Fv
[13] = growth inhibition at 48 hours vs 2% DMSO control, read-out: Concentration at 90% Inhibition Pc
[14] = mycelial plugs, growth inhibition at 48 hours vs 2% DMSO control, read-out: Concentration at 90% Inhibition Rs
[15] = Septoria tritici, read-out: Concentration at 90% Inhibition St

fungal (fACC2), sequence (Q00955 whole entry): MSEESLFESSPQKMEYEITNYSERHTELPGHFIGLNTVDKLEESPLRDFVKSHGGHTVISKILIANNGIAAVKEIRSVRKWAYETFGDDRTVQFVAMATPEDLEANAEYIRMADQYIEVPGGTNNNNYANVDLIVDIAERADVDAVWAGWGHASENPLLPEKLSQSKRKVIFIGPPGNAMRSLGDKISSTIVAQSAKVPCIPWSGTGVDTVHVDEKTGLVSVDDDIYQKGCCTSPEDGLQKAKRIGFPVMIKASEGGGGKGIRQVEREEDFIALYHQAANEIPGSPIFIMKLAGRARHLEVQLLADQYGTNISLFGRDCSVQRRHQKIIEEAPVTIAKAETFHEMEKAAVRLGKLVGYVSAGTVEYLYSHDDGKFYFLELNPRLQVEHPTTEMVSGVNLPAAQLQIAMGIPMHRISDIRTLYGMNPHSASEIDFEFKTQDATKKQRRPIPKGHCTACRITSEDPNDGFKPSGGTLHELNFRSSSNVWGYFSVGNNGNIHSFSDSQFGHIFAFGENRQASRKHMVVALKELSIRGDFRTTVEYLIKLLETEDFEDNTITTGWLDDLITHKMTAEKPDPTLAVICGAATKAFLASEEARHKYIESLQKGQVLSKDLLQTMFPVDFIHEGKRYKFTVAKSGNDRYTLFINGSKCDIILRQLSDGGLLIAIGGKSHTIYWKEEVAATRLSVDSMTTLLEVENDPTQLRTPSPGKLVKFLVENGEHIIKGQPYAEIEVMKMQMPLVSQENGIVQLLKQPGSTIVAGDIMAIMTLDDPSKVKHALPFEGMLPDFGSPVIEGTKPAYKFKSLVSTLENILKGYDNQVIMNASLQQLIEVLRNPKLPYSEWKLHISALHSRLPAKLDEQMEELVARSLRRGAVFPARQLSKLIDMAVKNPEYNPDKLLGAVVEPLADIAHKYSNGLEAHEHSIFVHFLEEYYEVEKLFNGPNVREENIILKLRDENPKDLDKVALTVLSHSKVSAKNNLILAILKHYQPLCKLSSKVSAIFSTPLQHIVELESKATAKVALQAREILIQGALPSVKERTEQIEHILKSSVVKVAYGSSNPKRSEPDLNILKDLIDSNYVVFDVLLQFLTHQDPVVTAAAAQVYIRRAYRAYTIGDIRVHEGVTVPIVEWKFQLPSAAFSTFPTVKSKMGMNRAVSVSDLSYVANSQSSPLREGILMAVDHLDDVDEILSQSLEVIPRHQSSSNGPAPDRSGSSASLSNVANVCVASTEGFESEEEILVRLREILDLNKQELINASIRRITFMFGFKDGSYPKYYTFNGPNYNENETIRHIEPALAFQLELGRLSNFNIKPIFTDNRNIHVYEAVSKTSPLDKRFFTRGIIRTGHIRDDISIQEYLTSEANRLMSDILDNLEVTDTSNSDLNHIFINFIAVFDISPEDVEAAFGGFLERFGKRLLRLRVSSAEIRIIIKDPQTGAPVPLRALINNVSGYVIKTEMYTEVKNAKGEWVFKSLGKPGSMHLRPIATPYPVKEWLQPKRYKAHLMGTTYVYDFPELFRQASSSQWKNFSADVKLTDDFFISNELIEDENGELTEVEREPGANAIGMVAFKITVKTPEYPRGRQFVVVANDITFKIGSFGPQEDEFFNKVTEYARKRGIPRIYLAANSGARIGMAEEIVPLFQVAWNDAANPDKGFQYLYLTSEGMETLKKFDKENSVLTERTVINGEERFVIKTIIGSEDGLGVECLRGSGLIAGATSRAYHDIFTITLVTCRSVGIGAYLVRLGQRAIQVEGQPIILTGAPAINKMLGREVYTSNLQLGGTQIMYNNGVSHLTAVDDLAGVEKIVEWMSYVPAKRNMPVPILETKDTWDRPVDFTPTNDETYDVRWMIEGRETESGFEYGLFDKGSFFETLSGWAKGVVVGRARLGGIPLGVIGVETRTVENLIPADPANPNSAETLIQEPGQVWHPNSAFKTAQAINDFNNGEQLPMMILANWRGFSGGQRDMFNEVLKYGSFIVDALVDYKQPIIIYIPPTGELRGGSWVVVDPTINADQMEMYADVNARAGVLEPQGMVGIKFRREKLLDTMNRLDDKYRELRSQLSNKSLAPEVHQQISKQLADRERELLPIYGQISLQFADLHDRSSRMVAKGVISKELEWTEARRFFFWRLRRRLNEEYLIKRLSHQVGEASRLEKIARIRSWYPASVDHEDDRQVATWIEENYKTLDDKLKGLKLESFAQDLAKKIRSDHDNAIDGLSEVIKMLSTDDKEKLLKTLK
human (hACC2), sequence (O00763 whole entry): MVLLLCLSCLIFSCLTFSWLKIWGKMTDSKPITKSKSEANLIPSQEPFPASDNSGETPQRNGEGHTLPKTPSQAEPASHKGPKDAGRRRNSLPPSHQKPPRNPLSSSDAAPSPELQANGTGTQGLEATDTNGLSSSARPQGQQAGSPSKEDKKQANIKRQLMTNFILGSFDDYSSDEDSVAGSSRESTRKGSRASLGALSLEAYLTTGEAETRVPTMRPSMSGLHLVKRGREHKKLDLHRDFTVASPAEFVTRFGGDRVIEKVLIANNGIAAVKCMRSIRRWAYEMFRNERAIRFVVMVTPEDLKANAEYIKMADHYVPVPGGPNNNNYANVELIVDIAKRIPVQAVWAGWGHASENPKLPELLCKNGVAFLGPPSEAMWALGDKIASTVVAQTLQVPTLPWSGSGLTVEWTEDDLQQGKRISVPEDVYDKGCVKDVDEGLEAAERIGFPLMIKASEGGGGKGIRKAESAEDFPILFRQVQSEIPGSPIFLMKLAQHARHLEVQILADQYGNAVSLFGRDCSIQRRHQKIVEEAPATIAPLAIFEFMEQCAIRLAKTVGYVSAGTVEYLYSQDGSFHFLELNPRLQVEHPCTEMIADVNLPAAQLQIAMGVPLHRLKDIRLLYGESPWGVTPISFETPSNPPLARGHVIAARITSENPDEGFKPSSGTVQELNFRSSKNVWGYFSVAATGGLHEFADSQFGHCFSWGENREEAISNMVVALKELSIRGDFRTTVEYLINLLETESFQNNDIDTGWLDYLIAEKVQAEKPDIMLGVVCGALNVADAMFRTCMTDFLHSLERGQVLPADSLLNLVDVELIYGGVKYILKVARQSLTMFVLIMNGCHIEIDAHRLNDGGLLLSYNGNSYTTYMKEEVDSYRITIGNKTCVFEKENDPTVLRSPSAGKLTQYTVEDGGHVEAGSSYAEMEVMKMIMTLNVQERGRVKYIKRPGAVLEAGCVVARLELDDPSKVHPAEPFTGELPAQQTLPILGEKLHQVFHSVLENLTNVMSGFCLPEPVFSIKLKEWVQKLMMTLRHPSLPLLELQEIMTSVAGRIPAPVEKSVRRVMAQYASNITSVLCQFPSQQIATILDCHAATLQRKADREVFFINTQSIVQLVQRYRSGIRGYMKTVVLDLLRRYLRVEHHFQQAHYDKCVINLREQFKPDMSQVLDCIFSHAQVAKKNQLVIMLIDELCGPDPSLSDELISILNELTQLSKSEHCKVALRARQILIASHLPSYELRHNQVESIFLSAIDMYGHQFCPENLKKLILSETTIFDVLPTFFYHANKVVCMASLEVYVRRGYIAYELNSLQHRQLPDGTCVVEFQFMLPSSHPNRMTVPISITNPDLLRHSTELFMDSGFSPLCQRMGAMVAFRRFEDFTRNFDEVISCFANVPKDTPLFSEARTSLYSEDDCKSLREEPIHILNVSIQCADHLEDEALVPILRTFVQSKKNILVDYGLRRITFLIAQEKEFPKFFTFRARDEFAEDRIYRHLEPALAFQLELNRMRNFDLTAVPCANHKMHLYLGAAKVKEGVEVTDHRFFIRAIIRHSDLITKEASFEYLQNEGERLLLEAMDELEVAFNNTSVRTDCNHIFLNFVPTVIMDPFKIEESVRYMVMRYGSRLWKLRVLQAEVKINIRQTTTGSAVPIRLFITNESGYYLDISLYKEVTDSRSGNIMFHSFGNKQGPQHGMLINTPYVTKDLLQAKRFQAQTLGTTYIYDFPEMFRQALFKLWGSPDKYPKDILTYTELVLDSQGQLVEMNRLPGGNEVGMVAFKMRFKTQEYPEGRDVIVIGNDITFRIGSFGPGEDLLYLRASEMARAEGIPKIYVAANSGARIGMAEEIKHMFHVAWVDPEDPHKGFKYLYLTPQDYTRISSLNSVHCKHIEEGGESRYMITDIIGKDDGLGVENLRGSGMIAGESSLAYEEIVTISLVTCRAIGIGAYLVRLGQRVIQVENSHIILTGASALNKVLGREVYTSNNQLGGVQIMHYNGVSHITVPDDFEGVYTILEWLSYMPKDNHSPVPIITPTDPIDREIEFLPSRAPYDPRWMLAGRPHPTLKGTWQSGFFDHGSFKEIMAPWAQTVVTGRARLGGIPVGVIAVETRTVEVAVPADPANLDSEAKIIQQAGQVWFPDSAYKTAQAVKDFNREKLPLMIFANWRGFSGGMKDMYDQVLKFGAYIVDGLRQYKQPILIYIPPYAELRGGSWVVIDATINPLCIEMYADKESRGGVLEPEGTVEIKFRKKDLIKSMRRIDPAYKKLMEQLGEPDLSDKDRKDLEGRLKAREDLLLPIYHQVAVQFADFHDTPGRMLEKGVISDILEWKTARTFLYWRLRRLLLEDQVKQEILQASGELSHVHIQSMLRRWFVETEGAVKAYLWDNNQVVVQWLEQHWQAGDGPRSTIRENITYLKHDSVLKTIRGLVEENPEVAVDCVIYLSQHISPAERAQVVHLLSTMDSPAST

Row | Compound | IC50 (human (hACC2); Table 2a) [nM] | IC50 (human (hACC2); Table 2b, additional results) [nM] | MIC (C. albicans; [5]) [µg/mL] | MIC (C. krusei; [6]) [µg/mL] | MIC (C. parapsilosis; [7]) [µg/mL] | IC90 (Botrtyis cinerea (Bc); [8]) [µg/mL] | IC90 [1, 9] [µg/mL] | IC90 (Diplodia maydis (Dm); [10]) [µg/mL] | IC90 [2, 11] [µg/mL] | IC90 [3, 12] [µg/mL] | IC90 [4, 13] [µg/mL] | IC90 (Rhizoctonia solani (Rs); [14]) [µg/mL] | IC90 (Septoria tritici (St); [15]) [µg/mL] | IC50 (fungal (fACC2); Table 2a) [nM] | IC50 (fungal (fACC2); Table 2b, additional results) [nM] | other results
1 | COc1ccc(F)cc1[C@H](Cn1c(=O)n(C(C)(C)C(=O)NC(C)C)c(=O)c2c(C)c(-n3nccn3)sc21)OC[C@H](C)C#N [Compound I-151] | 5 to 10 | 1 to 5 | 0.25 to 1 (≈ 0.409 to 1.63 µM) | 0.25 to 1 (≈ 0.409 to 1.63 µM) | 0.25 to 1 (≈ 0.409 to 1.63 µM) | 0.4 (≈ 0.654 µM) | 0.08 (≈ 0.131 µM) | 0.08 (≈ 0.131 µM) | 0.08 (≈ 0.131 µM) | 0.4 (≈ 0.654 µM) | > 50 | 0.08 (≈ 0.131 µM) | > 50 | 0.4 to 1 | 0.3 to 1 | MIC (C. albicans; Table 3a, ATCC 90028, 3 replicates, MIC recorded at 48 h, read-out: MIC, C. albicans ATCC 90028): 0.25 to 1 µg/mL (≈ 0.409 to 1.63 µM); MIC (C. krusei; Table 3a, ATCC 6258, 3 replicates, MIC recorded at 48 h, read-out: MIC, C. krusei ATCC 6258): 0.25 to 1 µg/mL (≈ 0.409 to 1.63 µM); MIC (C. parapsilosis; Table 3a, ATCC 22019, 3 replicates, MIC recorded at 48 h, read-out: MIC, C. parapsilosis ATCC 22019): 0.25 to 1 µg/mL (≈ 0.409 to 1.63 µM)
2 | COc1ccc(F)cc1[C@H](Cn1c(=O)n(C(C)(C)C(=O)NC(C)C)c(=O)c2c(C)c(-n3nccn3)sc21)OCC(C)(C)C#N [Compound I-154] | 5 to 10 | 5 to 10 |  |  |  |  |  |  |  |  |  |  |  | 1 to 5 | 1 to 5 | MIC (C. albicans; read-out: MIC, C. albicans ATCC 90028, Table 3a, 3 replicates, MIC recorded at 48 h): 0.25 to 1 µg/mL (≈ 0.4 to 1.6 µM); MIC (C. albicans; read-out: MIC, C. albicans ATCC 90028, Table 3b (additional results), 3 replicates, MIC recorded at 48 h): 0.25 to 1 µg/mL (≈ 0.4 to 1.6 µM); MIC (C. krusei; read-out: MIC, C. krusei ATCC 6258, Table 3a, 3 replicates, MIC recorded at 48 h): 0.25 to 1 µg/mL (≈ 0.4 to 1.6 µM); MIC (C. krusei; read-out: MIC, C. krusei ATCC 6258, Table 3b (additional results), 3 replicates, MIC recorded at 48 h): 0.25 to 1 µg/mL (≈ 0.4 to 1.6 µM); MIC (C. parapsilosis; read-out: MIC, C. parapsilosis ATCC 22019, Table 3a, 3 replicates, MIC recorded at 48 h): 0.25 to 1 µg/mL (≈ 0.4 to 1.6 µM); MIC (C. parapsilosis; read-out: MIC, C. parapsilosis ATCC 22019, Table 3b (additional results), 3 replicates, MIC recorded at 48 h): 1.01 to 2 µg/mL (≈ 1.61 to 3.2 µM); IC90 (Botrtyis cinerea (Bc); read-out: Concentration at 90% Inhibition Bc, Botrtyis cinerea): 0.4 µg/mL (≈ 0.639 µM); IC90 ([1]; read-out: Concentration at 90% Inhibition Cg, Collectotrichum graminicola): 0.4 µg/mL (≈ 0.639 µM); IC90 (Diplodia maydis (Dm); read-out: Concentration at 90% Inhibition Dm, Diplodia maydis): 0.08 µg/mL (≈ 0.128 µM); IC90 [2]: 0.08 µg/mL (≈ 0.128 µM); IC90 ([3]; read-out: Concentration at 90% Inhibition Fv, Fusarium virguliforme, growth inhibition at 48 hours vs 2% DMSO control): 0.4 µg/mL (≈ 0.639 µM); IC90 ([4]; read-out: Concentration at 90% Inhibition Pc, Phytophthora capsici, growth inhibition at 48 hours vs 2% DMSO control): > 50 µg/mL; IC90 (Rhizoctonia solani (Rs); read-out: Concentration at 90% Inhibition Rs, Rhizoctonia solani, mycelial plugs, growth inhibition at 48 hours vs 2% DMSO control): 0.08 µg/mL (≈ 0.128 µM); IC90 (Septoria tritici (St); read-out: Concentration at 90% Inhibition St, Septoria tritici): > 50 µg/mL
3 | COc1ccc(F)cc1[C@H](Cn1c(=O)n([C@H](C)C(=O)N2CCCC2)c(=O)c2c(C)c(-n3nccn3)sc21)OCCC#N [Compound I-187] |  | 1 to 5 | 2.01 to 4 (≈ 3.37 to 6.72 µM) | 2.01 to 4 (≈ 3.37 to 6.72 µM) | 1.01 to 2 (≈ 1.7 to 3.36 µM) | 0.4 (≈ 0.672 µM) | 2 (≈ 3.36 µM) | 2 (≈ 3.36 µM) | 0.08 (≈ 0.134 µM) | 0.4 (≈ 0.672 µM) | > 50 | 0.4 (≈ 0.672 µM) | > 50 |  | 1 to 5 | 
4 | COc1ccc(F)cc1[C@H](Cn1c(=O)n([C@@H](C)C(=O)N(C)C(C)C)c(=O)c2c(C)c(-n3nccn3)sc21)OCCC#N [Compound I-188] |  | 5 to 10 | 2.01 to 4 (≈ 3.36 to 6.69 µM) | 2.01 to 4 (≈ 3.36 to 6.69 µM) | 2.01 to 4 (≈ 3.36 to 6.69 µM) | 2 (≈ 3.35 µM) | 10 (≈ 16.7 µM) | 2 (≈ 3.35 µM) | 0.4 (≈ 0.669 µM) | 2 (≈ 3.35 µM) | > 50 | 2 (≈ 3.35 µM) | > 50 |  | 0.3 to 1 | 
5 | COc1ccc(F)cc1[C@@H](O)Cn1c(=O)n(C(C)(C)C(N)=O)c(=O)c2c(C)c(-n3nccn3)sc21 [Compound I-194] |  | 5 to 10 | 2.01 to 4 (≈ 4 to 7.96 µM) | 2.01 to 4 (≈ 4 to 7.96 µM) | > 4.01 | 10 (≈ 19.9 µM) | > 50 | > 50 | 10 (≈ 19.9 µM) | > 50 | > 50 | > 50 | > 50 |  | 1 to 5 | 
